According to PubChem BioAssay (NCI):
“And” between values parts separate entries of the source, which are not always exact repeats. Equal entries are not always repeated.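 Results reflect a 48-hour exposure of cells in 96-well plates to compound at five concentrations. GI50 = concentration required for 50% inhibition of growth. TGI is the concentration that stops growth completely.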

Tests used:
Assay in all cases: DTP human tumour cell line panel, 48 h
[1] = test system: HCC-2998 colon
[2] = test system: HCT-116 colon
[3] = test system: HOP-62 NSCLC
[4] = test system: HS 578T breast
[5] = test system: LOX IMVI melanoma
[6] = test system: M14 melanoma
[7] = test system: NCI-H460 lung
[8] = test system: NCI-H522 lung
[9] = test system: OVCAR-3 ovarian
[10] = test system: SK-MEL-2 melanoma

Structure (SMILES) | GI50 [1] | TGI [1] | GI50 [2] | TGI [2] | GI50 [3] | TGI [3] | GI50 [4] | TGI [4] | GI50 [5] | TGI [5] | GI50 [6] | TGI [6] | GI50 [7] | TGI [7] | GI50 [8] | TGI [8] | GI50 [9] | TGI [9] | GI50 [10] | TGI [10]
O=S(=O)(Nc1ccc(Cl)c(Cl)c1)c1ccc(-c2cnc(C3CC3)o2)cc1 | 1.81 µM | 10.3 µM | 0.458 µM | 13.9 µM | 0.524 µM | 16.7 µM | 0.455 µM | 30.7 µM | 0.586 µM | 19.3 µM | 0.418 µM | 13.1 µM | 0.368 µM | 11.6 µM | 0.329 µM | 15.1 µM | 0.277 µM | 0.967 µM | 2.43 µM | 24.4 µM
CS(=O)(=O)CCNCc1ccoc1-c1ccc2ncnc(Nc3ccc(OCc4ccccc4)cc3)c2c1 | > 25 µM | > 25 µM | > 25 µM | > 25 µM | > 25 µM | > 25 µM | 2.28 µM | > 25 µM | > 25 µM | > 25 µM | > 25 µM | > 25 µM | 11.4 µM | > 25 µM | > 25 µM | > 25 µM | > 25 µM | > 25 µM | > 25 µM | > 25 µM
N#Cc1cc2c(cc1Cl)SC(=Nc1ccccc1)N(S(=O)(=O)c1ccc(Br)s1)S2(=O)=O | 14.7 µM | 30.8 µM | 15.9 µM | 33.7 µM | 19.1 µM | 35.9 µM | 24 µM | 53.9 µM | 18.8 µM | 43.6 µM | 14.8 µM | 30.6 µM | 23.1 µM | 53 µM | 15.5 µM | 39.1 µM | 15.9 µM | 32 µM | 15 µM | 37.8 µM
O=C(N/N=C/c1ccc(N(CCCl)CCCl)cc1)c1ccc(C(=O)N/N=C/c2ccc(N(CCCl)CCCl)cc2)cc1 | 86.8 µM | > 100 µM | 2.48 µM | > 100 µM | 0.653 µM | > 100 µM | 3.54 µM | > 100 µM | 1.4 µM | > 100 µM | 3.79 µM | > 100 µM | 0.038 µM | > 100 µM | 0.465 µM | > 100 µM | 19 µM | > 100 µM | 2.13 µM | 33.3 µM
CCC(C)N1CN(c2ccccc2)C2(CCN(CCCC3(c4ccc(F)cc4)OCCO3)CC2)C1=O (configuration not stated) | – | 26.9 µM | – | 24.9 µM | – | 27.6 µM | – | 14.2 µM | – | 21.6 µM | – | > 35.7 µM | – | 30.8 µM | – | 10.2 µM | – | 29.8 µM | – | 28.7 µM
N=C1C=C(N)C(=O)c2ccccc21 | 1.39 µM | 2.76 µM | 0.183 µM | 0.451 µM | 0.204 µM | 0.435 µM | 0.353 µM | – | 0.17 µM | 0.421 µM | 0.209 µM | 0.422 µM | 1.81 µM | 4.01 µM | 0.17 µM | 0.342 µM | 0.139 µM | 0.281 µM | 0.189 µM | 0.373 µM
CC[C@@H](C(=O)[C@@H](C)[C@@H](O)[C@H](C)[C@@H]1O[C@@H]([C@@H](CC)C(=O)O)CC[C@@H]1C)[C@H]1O[C@]2(C=C[C@@H](O)[C@]3(CC[C@@](C)([C@H]4CC[C@](O)(CC)[C@H](C)O4)O3)O2)[C@H](C)C[C@@H]1C | 0.166 µM | 13 µM | 0.63 µM | 30.2 µM | 1.12 µM | 16.9 µM | 0.914 µM | 36.1 µM | 0.596 µM | 12.9 µM | 1.39 µM | 3.05 µM | 0.441 µM | 11.9 µM | 0.0469 µM | 0.47 µM | 0.166 µM | 25.8 µM | 0.279 µM | 2.48 µM
CSc1nc2ccc(C)cc2cc1/C=C1/C=C(c2ccccc2)NC1=O | > 100 µM | > 100 µM | 0.731 µM | 4.07 µM | 2.42 µM | 11.7 µM | 1.92 µM | 7.46 µM | 6.33 µM | 33.2 µM | 5.42 µM | 78 µM | 0.646 µM | 10.9 µM | 3.53 µM | 42.5 µM | 1.78 µM | 15.9 µM | 6.31 µM | 30.4 µM
O=C1CC2OCC=C3CN4CCC5(C(=O)O)C(N1)C2C3CC45 (configuration not stated) | – | > 100 µM | – | > 100 µM | – | > 100 µM | – | > 100 µM | – | > 100 µM | – | > 100 µM | – | > 100 µM | – | > 100 µM | – | > 100 µM | – | > 100 µM
COC(=O)Nc1nc2ccc(C(=O)c3cccs3)cc2[nH]1 | 0.0574 µM and 0.197 µM | 11.5 µM and > 100 µM | 0.0732 µM | 16.5 µM and 14.2 µM | 1.11 µM | 32.8 µM and > 100 µM | 0.0244 µM and 0.0882 µM | 50.9 µM and > 100 µM | 0.536 µM | > 100 µM | 0.0797 µM | 2.79 µM and 0.432 µM | 0.239 µM | – | 0.0139 µM and 0.107 µM | 0.0606 µM | 0.0192 µM and 0.0664 µM | – | 20 µM | 12.1 µM and > 100 µM
